Data published in BindingDB's records for doi:10.1016/j.bmcl.2009.03.136 (Central Drug Research Institute, 2009).
pIC50: −log10 of the molar value.

Experiment: Inhibition of rat intestinal alpha-glucosidase

pIC50: 4.29
Compound: COc1ccc(C=CC(=O)C[C@@H]2O[C@H](CO)[C@@H](O)[C@H](O)[C@H]2O)cc1OC [(E)-4-(3,4-dimethoxyphenyl)-1-((2S,3R,4R,5S,6R)-3,4,5-trihydroxy-6-(hydroxymethyl)tetrahydro-2H-pyran-2-yl)but-3-en-2-one]
